“And” between values parts separate entries of the source, which are not always exact repeats. Equal entries are not always repeated.
Test system: DU-145 multicell spheroids with HUVEC/MSC, viability
Test: Anticancer human tumor DU-145 cell line growth inhibition [IpAb];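 also: spheroids exposed to agents for seven days before measurement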;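 as to viability, T/C: percent of DMSO vehicle control viability so 100% = untreated level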
Settings: for viability, T/C: stronger effect = lower value
Description: Combinatorial screen of targeted agents with ipatasertib and abemaciclib in multi-cell type tumor spheroids
A high-throughput screen of multi-cell type tumor spheroids was designed to identify active combinations of targeted small molecules and ipatasertib or abemaciclib. Complex spheroids include a stromal component modeled by human endothelial cells (HUVEC) and fibroblasts modeled by human mesenchymal stem cells (MSCs). The concentration ranges selected for each drug and investigational agent were based upon clinically achievable concentrations if the clinical Cmax of the agent was known.
Compounds. The drugs and investigational agents: ipatasertib (NSC767898), abemaciclib(NSC768073), selumetinib (NSC741078), trametinib (758246), adavosertib (NSC754352), everolimus (NSC733504), sapanisertib (NSC764658), vemurafenib (NSC761431), venetoclax (NSC766270), copanlisib (NSC809693), apelisib (NSC765974), palbociblib (NSC758247), vemurafenib (NSC761431), dabrafenib (NSC764134), ravoxertinib (NSC781343), BMS-387032 (NSC767048), sotorasib (NSC818433), talazoparib (NSC767125) and afursertib (NSC778305), were obtained from the National Cancer Institute (NCI) Developmental Therapeutics Program Chemical Repository. The FDA-approved anticancer drug set is available from the NCI Developmental Therapeutics Program. […] The stock solutions were prepared in dimethyl sulfoxide (DMSO, Sigma-Aldrich, St. Louis, MO, cat. D2650) at 800-fold the tested concentration and stored at -70 degrees C prior to their use. All drugs and investigational agents were tested over a range starting from a high concentration at or near the clinical Cmax and decreasing in half-log increments. If the clinical Cmax for an agent had not been determined, the highest concentration tested was 10 microM.
NCI60 Cell Culture. NCI60 cell lines were obtained from the NCI Developmental Therapeutics Program Tumor Repository. For each lot of cells, the Repository performed Applied Biosystems AmpFLSTR Identifiler testing with PCR amplification to confirm consistency with the published Identifier STR profile for each cell line. Cells were kept in continuous culture for no more than 20 passages. The optimal seeding densities for each of the cell lines at each time point assessed were determined prior to performing the concentration response studies. Briefly, the NCI60 human tumor lines were grown as monolayers in RPMI 1640 medium supplemented with 10% FBS and 2 mmol/L L-glutamine.
An additional 9 lines were from the NCI60 cell line panel including MDA-MB-231 breast carcinoma, MDA-MB-468 breast carcinoma, MCF7 breast carcinoma, Hs578T breast carcinoma, MALME-3M melanoma, SK-MEL-2 melanoma, SK-OV-3 ovarian carcinoma, DU-145 prostate carcinoma, PC-3 prostate carcinoma, all cell lines along with major genetic alterations are listed on Table 2. Pooled donor human umbilical vein endothelial cells (HUVEC, Lonza, cat. CC-2519) and human mesenchymal stem cells (hMSC, Lonza, cat. PT-2501) were purchased from Lonza (Walkersville, MD).
PDMR cell lines were grown in complete medium (DC medium): Dulbecco's modified Eagle's medium (DMEM)/F12 supplemented with 5% fetal bovine serum (FBS), 2 mM L-glutamine, 100 U/mL penicillin and 100 µg/ml streptomycin, 0.4 µg/ml hydrocortisone, 10 ng/ml epidermal growth factor (EGF) recombinant human protein, 24 µg/mL adenine, and 0.1 mg/mL primocin. During culture from frozen stock vials, PDMR cells were cultured in the same medium containing 10 µM Y-27632 (see Table 3). The PDCs were cultured in complete DMEM/F12 media without 10 microM Y-27632 dihydrochloride for at least two passages prior to the screen. The pooled donor HUVEC and hMSC were cultured in endothelial cell growth medium 2 (PromoCell, Heidelberg, Germany, cat. C-22011) and mesenchymal stem cell growth medium 2 (PromoCell, cat. C-28009), respectively. For all experiments, HUVEC and hMSC were used at passages </=5.
[…]

[1] = curve of first compound, second compound 0.1 µM
[2] = curve of first compound, second compound 0.316 µM
[3] = curve of first compound, second compound 1 µM
[4] = second compound 0.1 µM, first compound 0.0316 µM
[5] = second compound 0.1 µM, first compound 0.1 µM
[6] = second compound 0.1 µM, first compound 0.316 µM
[7] = second compound 0.1 µM, first compound 1 µM
[8] = second compound 0.1 µM, first compound 3.16 µM
[9] = second compound 0.1 µM, first compound 10 µM
[10] = second compound 0.316 µM, first compound 0.0316 µM
[11] = second compound 0.316 µM, first compound 0.1 µM
[12] = second compound 0.316 µM, first compound 0.316 µM
[13] = second compound 0.316 µM, first compound 1 µM
[14] = second compound 0.316 µM, first compound 3.16 µM
[15] = second compound 0.316 µM, first compound 10 µM
[16] = second compound 1 µM, first compound 0.0316 µM
[17] = second compound 1 µM, first compound 0.1 µM
[18] = second compound 1 µM, first compound 0.316 µM
[19] = second compound 1 µM, first compound 1 µM
[20] = second compound 1 µM, first compound 3.16 µM
[21] = second compound 1 µM, first compound 10 µM
[22] = curve of first compound, second compound 0.01 µM
[23] = curve of first compound, second compound 0.0316 µM

Cn1ncc(Cl)c1-c1cc(C(=O)NC(CN)Cc2cccc(F)c2)sc1Cl (configuration not stated) + CC(C)NCC(C(=O)N1CCN(c2ncnc3c2C(C)CC3O)CC1)c1ccc(Cl)cc1
IC50 [1]: 142 nM
IC50 [2]: < 31.6 nM
IC50 [3]: < 31.6 nM
IC50 (curve of first compound, second compound 3.16 µM): < 31.6 nM
IC50 (curve of first compound, second compound 10 µM): < 31.6 nM
viability, T/C [4]: 72.8%
viability, T/C [5]: 56.3%
viability, T/C [6]: 35.3%
viability, T/C [7]: 24.7%
viability, T/C [8]: 17%
viability, T/C [9]: 0.42%
viability, T/C [10]: 46.1%
viability, T/C [11]: 41.2%
viability, T/C [12]: 33.6%
viability, T/C [13]: 24%
viability, T/C [14]: 16.4%
viability, T/C [15]: 1.33%
viability, T/C [16]: 30%
viability, T/C [17]: 32.6%
viability, T/C [18]: 28%
viability, T/C [19]: 24.2%
viability, T/C [20]: 15.8%
viability, T/C [21]: 0.93%
viability, T/C (second compound 3.16 µM, first compound 0.0316 µM): 22%
viability, T/C (second compound 3.16 µM, first compound 0.1 µM): 24.4%
viability, T/C (second compound 3.16 µM, first compound 0.316 µM): 21.7%
viability, T/C (second compound 3.16 µM, first compound 1 µM): 19.6%
viability, T/C (second compound 3.16 µM, first compound 3.16 µM): 18.7%
viability, T/C (second compound 3.16 µM, first compound 10 µM): 0.86%
viability, T/C (second compound 10 µM, first compound 0.0316 µM): 19.4%
viability, T/C (second compound 10 µM, first compound 0.1 µM): 19.7%
viability, T/C (second compound 10 µM, first compound 0.316 µM): 19.7%
viability, T/C (second compound 10 µM, first compound 1 µM): 18.5%
viability, T/C (second compound 10 µM, first compound 3.16 µM): 15.8%
viability, T/C (second compound 10 µM, first compound 10 µM): 0.27%

Cn1ncc(Cl)c1-c1cc(C(=O)NC(CN)Cc2cccc(F)c2)sc1Cl (configuration not stated)
viability, T/C (compound 0.0316 µM): 92.5% and 86.1%
viability, T/C (compound 0.1 µM): 74.3% and 61.8%
viability, T/C (compound 0.316 µM): 41.4% and 33.2%
viability, T/C (compound 1 µM): 27.6% and 23.1%
viability, T/C (compound 3.16 µM): 20.3% and 15.2%
viability, T/C (compound 10 µM): 1.17% and 1.6%
IC50 (curve of compound): 271 nM and 163 nM

CC(C)(C)c1cnc(CSc2cnc(NC(=O)C3CCNCC3)s2)o1 + CCN1CCN(Cc2ccc(Nc3ncc(F)c(-c4cc(F)c5nc(C)n(C(C)C)c5c4)n3)nc2)CC1
IC50 [22]: 104 nM
IC50 [23]: 82.2 nM
IC50 [1]: 66.6 nM
IC50 [2]: 60.4 nM
IC50 [3]: 34.9 nM
viability, T/C (second compound 0.01 µM, first compound 0.00949 µM): 108%
viability, T/C (second compound 0.01 µM, first compound 0.03 µM): 98.6%
viability, T/C (second compound 0.01 µM, first compound 0.0949 µM): 54%
viability, T/C (second compound 0.01 µM, first compound 0.3 µM): 8.61%
viability, T/C (second compound 0.01 µM, first compound 0.949 µM): 6.08%
viability, T/C (second compound 0.01 µM, first compound 3 µM): 5.15%
viability, T/C (second compound 0.0316 µM, first compound 0.00949 µM): 94.3%
viability, T/C (second compound 0.0316 µM, first compound 0.03 µM): 88.2%
viability, T/C (second compound 0.0316 µM, first compound 0.0949 µM): 44.7%
viability, T/C (second compound 0.0316 µM, first compound 0.3 µM): 8.69%
viability, T/C (second compound 0.0316 µM, first compound 0.949 µM): 5.54%
viability, T/C (second compound 0.0316 µM, first compound 3 µM): 5.3%
viability, T/C (second compound 0.1 µM, first compound 0.00949 µM): 87.6%
viability, T/C (second compound 0.1 µM, first compound 0.03 µM): 77.4%
viability, T/C (second compound 0.1 µM, first compound 0.0949 µM): 38.1%
viability, T/C (second compound 0.1 µM, first compound 0.3 µM): 7.33%
viability, T/C (second compound 0.1 µM, first compound 0.949 µM): 5.93%
viability, T/C (second compound 0.1 µM, first compound 3 µM): 4.44%
viability, T/C (second compound 0.316 µM, first compound 0.00949 µM): 77.5%
viability, T/C (second compound 0.316 µM, first compound 0.03 µM): 75.4%
viability, T/C (second compound 0.316 µM, first compound 0.0949 µM): 33.8%
viability, T/C (second compound 0.316 µM, first compound 0.3 µM): 7.83%
viability, T/C (second compound 0.316 µM, first compound 0.949 µM): 5.35%
viability, T/C (second compound 0.316 µM, first compound 3 µM): 4.86%
viability, T/C (second compound 1 µM, first compound 0.00949 µM): 67.8%
viability, T/C (second compound 1 µM, first compound 0.03 µM): 55.7%
viability, T/C (second compound 1 µM, first compound 0.0949 µM): 12.7%
viability, T/C (second compound 1 µM, first compound 0.3 µM): 6.89%
viability, T/C (second compound 1 µM, first compound 0.949 µM): 4.71%
viability, T/C (second compound 1 µM, first compound 3 µM): 4.63%

Cn1nccc1Nc1nccc(-c2ccn(C(CO)c3ccc(Cl)c(F)c3)c(=O)c2)n1 (configuration not stated) + CCN1CCN(Cc2ccc(Nc3ncc(F)c(-c4cc(F)c5nc(C)n(C(C)C)c5c4)n3)nc2)CC1
IC50 [22]: > 10000 nM
IC50 [23]: 7220 nM
IC50 [1]: > 10000 nM
IC50 [2]: > 10000 nM
IC50 [3]: > 10000 nM
viability, T/C (second compound 0.01 µM, first compound 0.0316 µM): 86.9%
viability, T/C (second compound 0.01 µM, first compound 0.1 µM): 68.4%
viability, T/C (second compound 0.01 µM, first compound 0.316 µM): 71%
viability, T/C (second compound 0.01 µM, first compound 1 µM): 85.6%
viability, T/C (second compound 0.01 µM, first compound 3.16 µM): 103%
viability, T/C (second compound 0.01 µM, first compound 10 µM): 82.1%
viability, T/C (second compound 0.0316 µM, first compound 0.0316 µM): 85.4%
viability, T/C (second compound 0.0316 µM, first compound 0.1 µM): 64.7%
viability, T/C (second compound 0.0316 µM, first compound 0.316 µM): 69.8%
viability, T/C (second compound 0.0316 µM, first compound 1 µM): 82.5%
viability, T/C (second compound 0.0316 µM, first compound 3.16 µM): 105%
viability, T/C (second compound 0.0316 µM, first compound 10 µM): 37.7%
viability, T/C [4]: 65.2%
viability, T/C [5]: 60.4%
viability, T/C [6]: 63.5%
viability, T/C [7]: 75.1%
viability, T/C [8]: 92.6%
viability, T/C [9]: 53.6%
viability, T/C [10]: 67.1%
viability, T/C [11]: 60.7%
viability, T/C [12]: 61.9%
viability, T/C [13]: 77%
viability, T/C [14]: 79.1%
viability, T/C [15]: 54.8%
viability, T/C [16]: 66.4%
viability, T/C [17]: 68.2%
viability, T/C [18]: 61.5%
viability, T/C [19]: 73.5%
viability, T/C [20]: 90.2%
viability, T/C [21]: 64.3%

Source: PubChem BioAssay AID2060335 (Molecular Pharmacology Branch, DTP, NCI, 2025)
